The record followed here is ChEMBL document CHEMBL6092169, “Development of selective heterocyclic PDE4 inhibitors for treatment of psoriasis” (Eur J Med Chem, 2024).

A value given as a limit tells only on which side of the number the result lay.

Data set [1] has as its target T1, 3',5'-cyclic-AMP phosphodiesterase 4D (Homo sapiens, UniProt Q08499). Put plainly: Inhibition of full-length PDE4D2 (unknown origin) using FAM-cAMP as substrate at 1 uM preincubated with compound for 15 mins followed by substrate addition and measured after 30 mins by fluorescence polarization based IMAP assay relative to control. Conditions: time 45.0 min. Background: Polarisation of emitted light reports the rotation of a fluorescent probe.

For data set [2], the system named is RAW264.7. In words: Anti-inflammatory activity in mouse RAW264.7 cells assessed as inhibition of LPS-induced TNF-alpha production at 10 uM incubated for 24 hrs by ELISA relative to control. It is filed as functional. More on the design: scale not given: the % may be the effect or the level left. In general terms: ELISA stands for enzyme-linked immunosorbent assay.

The target of data set [3] is T1, 3',5'-cyclic-AMP phosphodiesterase 4D. In words: Inhibition of full-length PDE4D2 (unknown origin) using FAM-cAMP as substrate preincubated with compound for 15 mins followed by substrate addition and measured after 30 mins by fluorescence polarization based IMAP assay.
Data set [4] has as its system RAW264.7. In words: Anti-inflammatory activity in mouse RAW264.7 cells assessed as inhibition of LPS-induced TNF-alpha production incubated for 24 hrs by ELISA. The data set is classed as functional, cell-based. The settings on record: RAW264.7, 24 h.
The nature of data set [5]: Cytotoxicity against human HaCaT cells assessed as reduction in cell viability incubated for 24 hrs by CCK-8 assay. It is filed as toxicity, cell-based. (In general: Formazan colour is commonly taken as a measure of viable cells.)
The subject of data set [6] is RAW264.7. In words: Anti-inflammatory activity in mouse RAW264.7 cells assessed as inhibition of LPS-induced IL-6 production incubated for 24 hrs by ELISA. The data set is classed as functional, cell-based. Conditions: RAW264.7, 24 h.
Data set [7] in a line: Cytotoxicity against mouse RAW264.7 cells assessed as reduction in cell viability incubated for 24 hrs by CCK-8 assay. It is filed as toxicity, cell-based.
The test system of another data set is HaCaT. In words: Anti-inflammatory activity in human HaCaT cells assessed as inhibition of M5-induced TNF-alpha production incubated for 24 hrs by ELISA. It is filed as functional, cell-based.

T1 sequence (Q08499 whole entry): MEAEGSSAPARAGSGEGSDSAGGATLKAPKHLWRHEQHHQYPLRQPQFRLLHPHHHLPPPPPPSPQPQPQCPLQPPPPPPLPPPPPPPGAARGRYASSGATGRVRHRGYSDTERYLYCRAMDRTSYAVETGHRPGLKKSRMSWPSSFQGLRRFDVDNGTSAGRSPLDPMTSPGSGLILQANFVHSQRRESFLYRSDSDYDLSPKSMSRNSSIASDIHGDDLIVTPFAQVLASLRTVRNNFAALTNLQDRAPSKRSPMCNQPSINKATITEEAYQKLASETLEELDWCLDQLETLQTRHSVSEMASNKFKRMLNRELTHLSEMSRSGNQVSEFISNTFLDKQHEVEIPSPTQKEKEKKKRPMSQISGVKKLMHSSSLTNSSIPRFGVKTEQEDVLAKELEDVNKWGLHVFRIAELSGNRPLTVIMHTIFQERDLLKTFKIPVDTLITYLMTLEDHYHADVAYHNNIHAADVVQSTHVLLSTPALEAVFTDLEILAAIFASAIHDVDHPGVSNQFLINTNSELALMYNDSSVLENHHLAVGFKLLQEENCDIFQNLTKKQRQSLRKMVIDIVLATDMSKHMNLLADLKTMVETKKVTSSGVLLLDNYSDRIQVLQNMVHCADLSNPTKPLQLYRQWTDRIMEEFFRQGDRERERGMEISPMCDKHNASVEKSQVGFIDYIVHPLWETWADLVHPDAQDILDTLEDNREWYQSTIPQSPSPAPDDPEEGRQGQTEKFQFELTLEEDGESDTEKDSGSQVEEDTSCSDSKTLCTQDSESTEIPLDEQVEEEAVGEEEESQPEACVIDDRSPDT

What is called inhibition is the percentage by which the read-out fell short of the control. In the case of `O=C(NCc1ccc(F)cc1F)c1c[nH]c(-c2ccc(OC(F)F)c(OC(F)F)c2)n1`, the inhibition in data set [1] was 88.4%. Moreover, the Activity in the data set with RAW264.7 [2] is listed as 14.32%.
A word on the IC50: it is the concentration at which inhibition is half-maximal. As to `O=C(NCc1c(F)cccc1F)c1c[nH]c(-c2ccc(OC(F)F)c(OCC3CC3)c2)n1`, the IC50 in data set [3] was determined as 15.9 nM. Further, the Activity in the data set on RAW264.7 [2] is reported as 13.88%.
Taken in the same sequence, the figures for `O=C(NCc1c(F)cccc1F)c1coc(-c2ccc(OC(F)F)c(OCC3CC3)c2)n1` were 27.3 nM and 9.32%.
`O=C(Nc1nccs1)c1coc(-c2ccc(OC(F)F)c(OCC3CC3)c2)n1`: in data set [1], the inhibition is 57%. In addition, in the data set on RAW264.7 [2], the Activity is listed as 11.17%.
As for `O=C(NCc1ccc(F)cc1F)c1c[nH]c(-c2ccc(OC(F)F)c(OCC3CC3)c2)n1`, the IC50 in data set [3] was determined as 4.74 nM. The Activity in the data set on RAW264.7 [2] stood at 5.16%.
In the case of `O=C(Nc1nc2ccccc2s1)c1coc(-c2ccc(OC(F)F)c(OCC3CC3)c2)n1`, in data set [1], the inhibition was 33.4%. Moreover, in the data set on RAW264.7 [2], the Activity was determined as 25.84%.
`O=C(NCc1ncccn1)c1c[nH]c(-c2cc(OCC3CC3)c(OC(F)F)c(OCC3CC3)c2)n1`: the inhibition in data set [1] worked out at 1.8%.
On to `COc1ccc(CNC(=O)c2c[nH]c(-c3ccc(OC(F)F)c(OCC4CC4)c3)n2)cn1`, for which, in data set [1], the inhibition amounted to 94.1%. The Activity in the data set with RAW264.7 [2] amounted to 7.74%.
`O=C(Nc1ccc2[nH]ccc2c1)c1c[nH]c(-c2ccc(OC(F)F)c(OCC3CC3)c2)n1`: in data set [1], the inhibition amounted to 83.5%. Besides, the Activity with RAW264.7 [2] is recorded as 21.36%.
Turning to `O=C(Nc1ccncc1)c1coc(-c2ccc(OC(F)F)c(OCC3CC3)c2)n1`, in data set [1], the inhibition worked out at 59%. Besides, in the data set on RAW264.7 [2], the Activity was 1.77%.
For `O=C(NCc1c(F)cc(F)cc1F)c1coc(-c2ccc(OC(F)F)c(OCC3CC3)c2)n1`, the inhibition in data set [1] worked out at 87.8%. In addition, the Activity with RAW264.7 [2] is on record as 7.53%.
For the molecule `O=C(NCc1ccc2ccccc2c1)c1c[nH]c(-c2ccc(OC(F)F)c(OCC3CC3)c2)n1`, the inhibition in data set [1] was 82.3%. Also, in the data set on RAW264.7 [2], the Activity is on record as 9.03%.
Consider `Cn1ccc(NC(=O)c2c[nH]c(-c3ccc(OC(F)F)c(OCC4CC4)c3)n2)n1`, for which the inhibition in data set [1] stood at 58.8%. Also, the Activity in the data set with RAW264.7 [2] is on record as 18.46%.
In the case of `Cn1cc(NC(=O)c2c[nH]c(-c3ccc(OC(F)F)c(OCC4CC4)c3)n2)cn1`, the inhibition in data set [1] was 78.8%. Besides, the Activity in the data set with RAW264.7 [2] worked out at 27.5%.
As for `O=C(NCc1cnccn1)c1c[nH]c(-c2ccc(OC(F)F)c(OCC3CC3)c2)n1`, the inhibition in data set [1] was 95.9%. For the same molecule, the Activity with RAW264.7 [2] is recorded as 16.03%.
For `O=C(NCc1ccc(F)c(F)c1)c1c[nH]c(-c2ccc(OC(F)F)c(OCC3CC3)c2)n1`, the IC50 in data set [3] was found to be 14.9 nM. In addition, the Activity in the data set with RAW264.7 [2] turned out to be 12.03%.
For the molecule `O=C(Nc1nccs1)c1c[nH]c(-c2ccc(OC(F)F)c(OCC3CC3)c2)n1`, the inhibition in data set [1] worked out at 74.3%. In addition, the half-maximal inhibitory concentration (IC50) with RAW264.7 [4] came out at 59900 nM.
With `O=C(NCc1cc(F)ccc1F)c1c[nH]c(-c2ccc(OC(F)F)c(OC(F)F)c2)n1`, the inhibition in data set [1] was determined as 93.6%. Moreover, in the data set on RAW264.7 [2], the Activity came out at 14.69%.
The corresponding values for `O=C(NCC1CCOCC1)c1c[nH]c(-c2ccc(OC(F)F)c(OCC3CC3)c2)n1` are 93.9% and 24.03%.
Consider `O=C(NCc1ccccn1)c1c[nH]c(-c2ccc(OC(F)F)c(OCC3CC3)c2)n1`, for which, in data set [1], the inhibition is 96.7%. For the same molecule, in the data set with RAW264.7 [2], the Activity was 6.39%.
Taken in the same sequence, the figures for `O=C(O)c1coc(-c2ccc(OC(F)F)c(OCC3CC3)c2)n1` were 46.2% and 10.47%.
In the case of `COc1cc(-c2nc(C(=O)NCc3c(F)cccc3F)c[nH]2)cc(OC)c1OC(F)F`, the inhibition in data set [1] is 33.3%.
In the case of `Cc1ccc(-c2nc(C(=O)Nc3ccncc3)c[nH]2)cc1C`, the inhibition in data set [1] is 3.4%. Also, the Activity with RAW264.7 [2] stood at 11.94%.
`O=C(NCc1ccc(F)cc1F)c1coc(-c2ccc(OC(F)F)c(OCC3CC3)c2)n1`: in data set [1], the inhibition came to 67.6%. In addition, in the data set with RAW264.7 [2], the Activity was 18.06%.
As for `COc1cc(-c2nc(C(=O)NCc3ncccn3)c[nH]2)cc(OC)c1OC(F)F`, the inhibition in data set [1] worked out at 0.8%.
For the molecule `O=C(NCc1ncccn1)c1c[nH]c(-c2ccc(OC(F)F)c(OC(F)F)c2)n1`, the inhibition in data set [1] worked out at 96.3%. Further, in the data set with RAW264.7 [2], the Activity is given as 4.06%.
Regarding `O=C(NCc1ccccc1)c1coc(-c2ccc(OC(F)F)c(OCC3CC3)c2)n1`, in data set [1], the inhibition came out at 89.8%. Moreover, the Activity in the data set on RAW264.7 [2] is given as 8.13%.
`O=C(O)c1c[nH]c(-c2ccc(OC(F)F)c(OCC3CC3)c2)n1`: in data set [1], the inhibition is 35.7%. In the data set with RAW264.7 [2], the Activity worked out at 4.22%.
Consider `COc1cc(-c2nc(C(=O)Nc3ccc4ncsc4c3)c[nH]2)cc(OC)c1OC(F)F`, for which, in data set [1], the inhibition was determined as 8.4%.
For the molecule `O=C(Nc1ccccc1)c1coc(-c2ccc(OC(F)F)c(OCC3CC3)c2)n1`, the inhibition in data set [1] stood at 38.8%. Besides, in the data set on RAW264.7 [2], the Activity turned out to be 15.78%.
The corresponding values for `O=C(Nc1ccncc1)c1c[nH]c(-c2ccc(OC(F)F)c(OCC3CC3)c2)n1` are 99.3% and 15.37%.
Taken in the same sequence, the figures for `COC(=O)c1coc(-c2ccc(OC(F)F)c(OCC3CC3)c2)n1` were 70.1% and 26.96%.
The corresponding values for `O=C(NCc1ccccc1)c1c[nH]c(-c2ccc(OC(F)F)c(OCC3CC3)c2)n1` are 91.1% and 8.88%.
`O=C(NCc1ncccn1)c1coc(-c2ccc(OC(F)F)c(OCC3CC3)c2)n1`: the IC50 in data set [3] turned out to be 18.2 nM. Moreover, the Activity with RAW264.7 [2] was 4.98%.
As a reminder, the CC50 is the concentration that lowers cell viability or growth by half. With `O=C(NCc1ncccn1)c1c[nH]c(-c2ccc(OC(F)F)c(OCC3CC3)c2)n1`, the CC50 at 24 h in data set [5] and in data set [7] was greater than 50000 nM throughout. The concentration for half-maximal inhibition (IC50) was 0.5 nM in data set [3], 38400 nM in the data set with RAW264.7 [6], 19300 nM with HaCaT and 27300 nM in the data set on RAW264.7 [4].
Turning to `O=C(Nc1ccccc1)c1c[nH]c(-c2ccc(OC(F)F)c(OCC3CC3)c2)n1`, the inhibition in data set [1] amounted to 64.9%. Moreover, in the data set with RAW264.7 [2], the Activity is 9.32%.
Taken in the same sequence, the figures for `O=C(Nc1ccc2ncsc2c1)c1coc(-c2ccc(OC(F)F)c(OCC3CC3)c2)n1` were 39.6% and 25.05%.
